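Briefly, cells in 96-well plates were exposed to five compound concentrations for 48 h, and endpoints were estimated by linear interpolation. GI50 = concentration required for 50% inhibition of growth.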 Activity calls are given as the source filed them. No stated cut-off is given here; in the data, active = GI50 up to about 1.1 µM and inactive = higher.
How the values were obtained:
Experiment in all cases: NCI tumour cell line growth inhibition, 48 h
[1] = tested on: 786-0
[2] = tested on: A498
[3] = tested on: ACHN
[4] = tested on: CAKI-1
[5] = tested on: HCC 2998
[6] = tested on: HOP-92
[7] = tested on: Malme-3M
[8] = tested on: NCI-H226
[9] = tested on: NCI-H23
[10] = tested on: OVCAR-3
[11] = tested on: OVCAR-4
[12] = tested on: OVCAR-8
[13] = tested on: SF-539
[14] = tested on: SK-MEL-2
[15] = tested on: SNB-75
[16] = tested on: U-251

Measured: GI50

CCOC(=O)C1=C(NC)OCC1=O
inactive: [1] > 100 µM | [2] > 100 µM | [3] > 100 µM | [4] > 100 µM | [5] > 100 µM | [6] > 100 µM | [7] > 100 µM | [8] > 100 µM | [9] > 100 µM | [10] > 100 µM | [11] > 100 µM | [12] > 100 µM | [13] > 100 µM | [14] > 100 µM | [15] > 100 µM | [16] > 100 µM

O=C(O)C(Cl)(Cl)Cl
inactive: [3] > 100 µM | [4] > 100 µM | [5] > 100 µM | [6] > 100 µM | [7] > 100 µM | [8] > 100 µM | [9] > 100 µM | [11] > 100 µM | [12] > 100 µM | [13] > 100 µM | [14] > 100 µM | [15] 63.1 µM | [16] > 100 µM

COC(=O)[C@H](Cc1ccccc1)NC(=O)/C(=C/C(C)C)NC(=O)[C@H](CCSC)NC=O
inactive: [1] > 100 µM | [2] > 100 µM | [3] > 100 µM | [4] > 100 µM | [5] > 100 µM | [6] > 100 µM | [8] > 100 µM | [9] > 100 µM | [10] > 100 µM | [11] > 100 µM | [12] > 100 µM | [13] > 100 µM | [14] > 100 µM | [15] > 100 µM | [16] > 100 µM

COc1ccc(C=O)c(NC(=O)C(C)C)c1
inactive: [1] 74.6 µM | [2] 49.7 µM | [3] 29.8 µM | [6] 18.2 µM | [7] 27.4 µM | [8] > 10 µM | [9] 26 µM | [10] 30.5 µM | [11] 27 µM | [12] 30.8 µM | [13] 40.4 µM | [14] 37.6 µM | [15] 30.6 µM | [16] 77.1 µM

O=c1cccccc1NCCCCCCNc1cccccc1=O
inactive: [1] > 100 µM | [2] > 100 µM | [3] > 100 µM | [4] > 100 µM | [5] > 100 µM | [7] > 100 µM | [8] > 100 µM | [9] > 100 µM | [10] > 100 µM | [11] > 100 µM | [12] > 100 µM | [14] > 100 µM | [15] 57.7 µM | [16] > 100 µM

O=C1c2ccccc2CCCCCCCCCCC12OCCCO2
inactive: [1] 67.1 µM | [2] 32.1 µM | [3] 52.4 µM | [4] 25.5 µM | [5] 25.4 µM | [7] 30.9 µM | [8] 35.6 µM | [9] 40.3 µM | [10] 32.5 µM | [11] 57.1 µM | [12] 87.3 µM | [13] 58.1 µM | [14] 24.3 µM | [15] 25.6 µM | [16] 24.4 µM

COC1(Cc2ccccc2)C(=O)c2ccccc2N1C(C)=O (stereo not given)
inactive: [1] > 100 µM | [2] > 100 µM | [3] > 100 µM | [4] > 100 µM | [5] > 100 µM | [6] > 100 µM | [9] > 100 µM | [10] > 100 µM | [11] > 100 µM | [12] > 100 µM | [13] > 100 µM | [14] > 100 µM | [15] > 100 µM | [16] > 100 µM

CCOc1ccc(C2=C(Cl)c3cc(OC)c(OC)cc3C2Cl)cc1 (stereo not given)
inactive: [2] 19.8 µM | [3] 31.6 µM | [4] 46.1 µM | [6] 25.4 µM | [7] 33.8 µM | [8] 30.8 µM | [9] 44.4 µM | [10] 59 µM | [12] 36.4 µM | [13] 29.8 µM | [14] 23.1 µM | [15] 44.1 µM | [16] 18.2 µM

C/C(=N\NC(=S)Nc1ccc([N+](=O)[O-])cc1S(=O)(=O)O)c1ccccn1
inactive: [1] 59.8 µM | [2] 36.7 µM | [3] 62.4 µM | [4] 52.8 µM | [5] 30.9 µM | [6] 41.9 µM | [7] 95.9 µM | [8] 37.4 µM | [9] 69.3 µM | [10] 26.6 µM | [11] 36.8 µM | [12] 34.3 µM | [13] 46.3 µM | [14] 29.4 µM | [15] 43 µM | [16] 33.5 µM

CCCCCC(=O)c1ccc2[nH]c3c(C)cc([N+](=O)[O-])c(C)c3c2c1
inactive: [1] 36.1 µM | [3] > 100 µM | [4] > 100 µM | [5] > 100 µM | [7] > 100 µM | [8] > 100 µM | [9] 95.3 µM | [10] 67.6 µM | [11] 89.3 µM | [12] 75.5 µM | [13] 45.6 µM | [14] > 100 µM | [15] > 100 µM

COC(=O)C1=C(OC)c2cc3c(cc2C(c2cc(OC)c(OC)c(OC)c2)C1C(=O)OC)OCO3 (stereo not given)
inactive: [1] > 100 µM | [2] 43.2 µM | [3] > 100 µM | [4] > 100 µM | [5] > 100 µM | [6] 48.9 µM | [7] > 100 µM | [8] > 100 µM | [9] > 100 µM | [10] > 100 µM | [11] > 100 µM | [12] 79.3 µM | [13] > 100 µM | [14] > 100 µM | [15] > 100 µM | [16] > 100 µM

O=C(CC(=O)c1ccccc1)CC(O)(c1ccccc1)c1ccccc1
inactive: [2] 12.1 µM | [3] 6.27 µM | [4] 2.9 µM | [5] 10.6 µM | [6] 5.21 µM | [7] 11 µM | [8] 3.87 µM | [9] 3.37 µM | [10] 4.84 µM | [11] 3.13 µM | [12] 5.26 µM | [14] 9.95 µM | [15] 9.55 µM | [16] 3.32 µM

O=c1cc[nH]c2c1ccc1ncccc12
inactive: [1] > 100 µM | [2] > 100 µM | [3] > 100 µM | [5] > 100 µM | [7] > 100 µM | [8] > 100 µM | [9] > 100 µM | [10] > 100 µM | [11] > 100 µM | [12] > 100 µM | [13] > 100 µM | [14] > 100 µM | [15] > 100 µM | [16] > 100 µM

CCOC(=O)/C=C/n1c2ccccc2c(=O)c2cc(OC)ccc21
inactive: [1] > 100 µM | [2] > 100 µM | [3] > 100 µM | [4] > 100 µM | [5] > 100 µM | [6] 57.9 µM | [7] > 100 µM | [8] > 100 µM | [9] 57.1 µM | [10] > 100 µM | [11] > 100 µM | [12] > 100 µM | [13] > 100 µM | [14] > 100 µM | [15] 51.5 µM | [16] 71.8 µM

CP(=O)(CCSc1ccccc1)c1ccccc1 (stereo not given)
inactive: [1] > 100 µM | [2] > 100 µM | [3] > 100 µM | [4] > 100 µM | [5] > 100 µM | [6] > 100 µM | [7] > 100 µM | [8] > 100 µM | [9] > 100 µM | [10] > 100 µM | [11] > 100 µM | [12] > 100 µM | [13] > 100 µM | [15] > 100 µM | [16] > 100 µM

CC(=O)C(CN(C)C)C(c1ccccc1)c1c(O)c2ccccc2oc1=O (stereo not given)
inactive: [1] > 100 µM | [3] > 100 µM | [4] > 100 µM | [5] > 100 µM | [6] 49.9 µM | [7] > 100 µM | [8] > 100 µM | [9] > 100 µM | [10] > 100 µM | [11] > 100 µM | [12] > 100 µM | [13] > 100 µM | [14] > 100 µM | [15] 14.3 µM | [16] > 100 µM

CC(=O)OCCOCNC(=S)N/N=C(\C)c1cnc2ccccc2n1
inactive: [1] 39.7 µM | [2] > 100 µM | [3] 11.5 µM | [5] 32.7 µM | [7] 40.6 µM | [8] 36.4 µM | [9] 72.8 µM | [10] 16.8 µM | [11] 57.1 µM | [12] 33.9 µM | [13] 55.8 µM | [14] 33.3 µM | [15] 52.7 µM | [16] 29.1 µM

O=C(Cc1ccccc1)NN1C(=O)C(Cl)C1c1ccc(Cl)cc1 (stereo not given)
inactive: [1] > 100 µM | [3] > 100 µM | [4] > 100 µM | [5] > 100 µM | [7] > 100 µM | [8] > 100 µM | [9] > 100 µM | [10] > 100 µM | [11] > 100 µM | [12] > 100 µM | [14] > 100 µM | [15] 84.5 µM | [16] > 100 µM

COc1cc(Cc2cc(OC)c(OC)c(OC)c2)ccc1O
inactive: [1] 29.7 µM | [3] 40.9 µM | [4] 62.1 µM | [5] 27 µM | [6] 19.3 µM | [7] 2.41 µM | [8] 93.1 µM | [9] 11.2 µM | [10] 9.23 µM | [11] 82.2 µM | [12] 25.5 µM | [13] 9.31 µM | [14] 3.11 µM | [15] 2.88 µM | [16] 19.9 µM
